According to patent publication US10562909B2, “Fused quadracyclic compounds, compositions and uses thereof” (Tabomedex Biosciences, LLC, priority 2016, dated 2020):

Biological target: MAPKAPK2 (Homo sapiens, UniProt P49137)
Experiment: MK2 Enzymatic Assay
Type: biochemical
Details: 0.5 nM MAPKAPK2, 3 μM ATP, 2 μM Ser/Thr4 peptide, 23° C., values given as concentration bins
Experimental: Briefly, 5 μL of 2× (4 μM) 100% phosphorylation peptide was delivered into the control wells of a 384-well assay plate. 5 μL of 2× (1 nM) MAPKAPK2 and 2× peptide (4 μM) mixture in assay buffer was dispensed to remaining columns of assay plate using Eppendorf electronic multiple channel pipette. The assay plate was incubated for 20 minutes. 5 μL of 2× ATP (6 μM) in assay buffer was dispensed to each well and then the assay plate was lightly centrifuged. The assay plate was incubated for an additional 120 minutes.
5 μL of development reagent A was dispensed to all wells using Eppendorf electronic multiple channel pipette. After incubating the development reaction for 120 min, plates were read on a Perkin Elmer Envision instrument.
Percent phosphorylation was calculated using the following formula:
[formula] Where • C100%=Average Coumarin emission signal of the 100% Phos. Control • C0%=Average Coumarin emission signal of the 0% Phos. Control • F100%=Average Fluorescein emission signal of the 100% Phos. Control • F0%=Average Flurescein emission signal of the 0% Phos. Control

Sequence of MAPKAPK2 (P49137 whole entry, species assumed): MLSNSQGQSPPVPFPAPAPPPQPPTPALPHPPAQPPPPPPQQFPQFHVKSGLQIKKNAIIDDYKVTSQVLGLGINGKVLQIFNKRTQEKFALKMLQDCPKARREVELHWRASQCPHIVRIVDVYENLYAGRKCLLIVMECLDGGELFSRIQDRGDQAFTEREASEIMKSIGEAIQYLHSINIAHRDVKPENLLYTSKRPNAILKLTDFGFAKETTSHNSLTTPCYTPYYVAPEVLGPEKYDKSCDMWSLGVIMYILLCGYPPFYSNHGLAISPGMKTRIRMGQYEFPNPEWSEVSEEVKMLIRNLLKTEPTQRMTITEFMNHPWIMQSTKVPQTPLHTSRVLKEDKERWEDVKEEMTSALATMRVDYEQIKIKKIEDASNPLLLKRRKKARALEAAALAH

IC50 [nM]	SMILES
50 to 100	Cc1nnc2n1-c1ccc(N3CC[C@H](CN(C)C)C3)cc1Cn1cc(-c3ccc(C#N)cc3)cc1-2 [Compound 229, 4-(7-((R)-3-((dimethylamino)methyl)pyrrolidin-1-yl)-3-methyl-9H-benzo[e]pyrrolo[1,2-a] [1,2,4]triazolo[3,4-c][1,4]diazepin-12-yl)benzonitrile]
100 to 200	CN(C)C1CN(c2ccc3c(c2)Cn2cc(-c4ccc(C#N)cc4)cc2-c2nnnn2-3)C1 [Compound 235, 4-(7-(3-(dimethylamino)azetidin-1-yl)-9H-benzo[e]pyrrolo[1,2-a]tetrazolo[5,1-c][1,4]diazepin-12-yl)benzonitrile]
< 50	CNCC1CCN(c2ccc3c(c2)Cn2cc(-c4ccc(C#N)cc4)cc2-c2nnnn2-3)C1 (stereo not shown) [Compound 239, 4-(7-(3-((methylamino)methyl)pyrrolidin-1-yl)-9H-benzo[e]pyrrolo[1,2-a]tetrazolo[5,1-c] [1,4]diazepin-12-yl)benzonitrile]
50 to 100	C[C@@H]1CN(c2ccc3c(c2)Cn2cc(-c4ccc(C#N)cc4)cc2-c2nnnn2-3)C[C@H](C)N1 [Compound 242, 4-(7-(cis-3,5-dimethylpiperazin-1-yl)-9H-benzo[e]pyrrolo[1,2-a]tetrazolo[5,1-c][1,4]diazepin-12-yl)benzonitrile]
100 to 200	N#Cc1ccc(-c2cc3n(c2)Cc2cc(N4CC5(CCNCC5)C4)ccc2-n2nnnc2-3)cc1 [Compound 245, 4-(7-(2,7-diazaspiro[3.5]nonan-2-yl)-9H-benzo[e]pyrrolo[1,2-a]tetrazolo[5,1-c][1,4]diazepin-12-yl)benzonitrile]
50 to 100	CN(C)C[C@@H]1CCN(c2ccc3c(c2)Cn2cc(-c4ccc(C#N)cc4)cc2-c2ncnn2-3)C1 [Compound 254, (S)-4-(7-(3-((dimethylamino)methyl)pyrrolidin-1-yl)-9H-benzo[e]pyrrolo[1,2-a][1,2,4]triazolo[5,1-c][1,4]diazepin-12-yl)benzonitrile]
< 50	CN(C)C[C@H]1CCN(c2ccc3c(c2)Cn2cc(-c4ccc(C#N)cc4)cc2-c2ncnn2-3)C1 [Compound 255, (R)-4-(7-(3-((dimethylamino)methyl)pyrrolidin-1-yl)-9H-benzo[e]pyrrolo[1,2-a][1,2,4]riazolo[5,1-c][1,4]diazepin-12-yl)benzonitrile]
< 50	N#Cc1ccc(-c2cc3n(c2)Cc2cc(N4CCC5(CNC5)C4)ccc2-n2ncnc2-3)cc1 [Compound 256, 4-(7-(2,6-diazaspiro[3.4]octan-6-yl)-9H-benzo[e]pyrrolo[1,2-a][1,2,4]triazolo[5,1-c][1,4]diazepin-12-yl)benzonitrile]
50 to 100	N#Cc1ccc(-c2cc3n(c2)Cc2cc(N4CC5(CCNC5)C4)ccc2-n2ncnc2-3)cc1 [Compound 258, 4-(7-(2,6-diazaspiro[3.4]octan-2-yl)-9H-benzo[e]pyrrolo[1,2-a][1,2,4]triazolo[5,1-c][1,4]diazepin-12-yl)benzonitrile]

Second part, the compound before the results:

SMILES	IC50 [nM]
CN1CC2(CCN(c3ccc4c(c3)Cn3c(cc(-c5ccc(C#N)cc5)c3Cl)-c3nncn3-4)C2)C1 [Compound 168, 4-(11-chloro-7-(2-methyl-2,6-diazaspiro[3.4]octan-6-yl)-9H-benzo[e]pyrrolo[1,2-a][1,2,4]triazolo[3,4-c][1,4]diazepin-12-yl)benzonitrile]	100 to 200
N#Cc1ccc(-c2cc3n(c2Cl)Cc2cc(N4CC[C@@H](CN)C4)ccc2-n2cnnc2-3)cc1 [Compound 169, (S)-4-(7-(3-(aminomethyl)pyrrolidin-1-yl)-11-chloro-9H-benzo[e]pyrrolo[1,2-a][1,2,4]tri-azolo[3,4-c][1,4]diazepin-12-yl)benzonitrile]	< 50
CN(C)C[C@@H]1CCN(c2ccc3c(c2)Cn2c(cc(-c4ccc(C#N)cc4)c2Cl)-c2nncn2-3)C1 [Compound 170, (S)-4-(11-chloro-7-(3-((dimethylamino)methyl)pyrrolidin-1-yl)-9H-benzo[e]pyrrolo[1,2-a] [1,2,4]triazolo[3,4-c][1,4]diazepin-12-yl)benzonitrile]	50 to 100
N#Cc1ccc(-c2cc3n(c2Cl)Cc2cc(N4CC[C@H](CN)C4)ccc2-n2cnnc2-3)cc1 [Compound 171, (R)-4-(7-(3-(aminomethyl)pyrrolidin-1-yl)-11-chloro-9H-benzo[e]pyrrolo[1,2-a][1,2,4]tri-azolo[3,4-c][1,4]diazepin-12-yl)benzonitrile]	50 to 100
CNC[C@@H]1CCN(c2ccc3c(c2)Cn2c(cc(-c4ccc(C#N)cc4)c2Cl)-c2nncn2-3)C1 [Compound 173, (S)-4-(11-chloro-7-(3-((methylamino)methyl)pyrrolidin-1-yl)-9H-benzo[e]pyrrolo[1,2-a][1,2,4]triazolo[3,4-c][1,4]diazepin-12-yl)benzonitrile]	< 50
Cc1nnc2n1-c1ccc(N3CC[C@@H](CN(C)C)C3)cc1Cn1cc(-c3ccc(C#N)cc3)cc1-2 [Compound 228, 4-(7-((S)-3-((dimethylamino)methyl)pyrrolidin-1-yl)-3-methyl-9H-benzo[e]pyrrolo[1,2-a] [1,2,4]triazolo[3,4-c][1,4]diazepin-12-yl)benzonitrile]	50 to 100
Cc1nnc2n1-c1ccc(N3CC[C@H](N)C3)cc1Cn1cc(-c3ccc(C#N)cc3)cc1-2 [Compound 230, 4-(7-((S)-3-aminopyrrolidin-1-yl)-3-methyl-9H-benzo[e]pyrrolo[1,2-a][1,2,4]triazolo[3,4-c][1,4]diazepin-12-yl)benzonitrile]	50 to 100
CN1CC2(CCN(c3ccc4c(c3)Cn3cc(-c5ccc(C#N)cc5)cc3-c3nnnn3-4)C2)C1 [Compound 240, 4-(7-(2-methyl-2,6-diazaspiro[3.4]octan-6-yl)-9H-benzo[e]pyrrolo[1,2-a]tetrazolo[5,1-c] [1,4]diazepin-12-yl)benzonitrile]	< 50
CN(C)C[C@@H]1CCN(c2ccc3c(c2)Cn2cc(-c4ccc(C#N)cc4)cc2-c2nnnn2-3)C1 [Compound 241, (S)-4-(7-(3-((dimethylamino)methyl)pyrrolidin-1-yl)-9H-benzo[e]pyrrolo[1,2-a]tetrazolo[5,1-c][1,4]diazepin-12-yl)benzonitrile]	< 50
CNCC1CN(c2ccc3c(c2)Cn2cc(-c4ccc(C#N)cc4)cc2-c2ncnn2-3)C1 [Compound 250, 4-(7-(3-((methylamino)methyl)azetidin-1-yl)-9H-benzo[e]pyrrolo[1,2-a][1,2,4]triazolo[5,1-c] [1,4]diazepin-12-yl)benzonitrile]	50 to 100
CN1CC2(CCN(c3ccc4c(c3)Cn3cc(-c5ccc(C#N)cc5)cc3-c3ncnn3-4)C2)C1 [Compound 253, 4-(7-(2-methyl-2,6-diazaspiro[3.4]octan-6-yl)-9H-benzo[e]pyrrolo[1,2-a][1,2,4]triazolo[5,1-c][1,4]diazepin-12-yl)benzonitrile]	< 50
CN(C)[C@@H]1CCN(c2ccc3c(c2)Cn2cc(-c4ccc(C#N)cc4)cc2-c2ncnn2-3)C1 [Compound 259, (R)-4-(7-(3-(dimethylamino)pyrrolidin-1-yl)-9H-benzo[e]pyrrolo[1,2-a][1,2,4]triazolo[5,1-c][1,4]diazepin-12-yl)benzonitrile]	< 50
CN(C)[C@H]1CCN(c2ccc3c(c2)Cn2cc(-c4ccc(C#N)cc4)cc2-c2ncnn2-3)C1 [Compound 260, (S)-4-(7-(3-(dimethylamino)pyrrolidin-1-yl)-9H-benzo[e]pyrrolo[1,2-a][1,2,4]triazolo[5,1-c][1,4]diazepin-12-yl)benzonitrile]	< 50
